Laboratory results taken from patent US10849958B2, “Knee pain evaluation and management via WOMAC and KOOS systems” (ORTHOTROPHIX, INC., priority 2017, dated 2020).
Ends that are not written are not given here.

System: subjects with bilateral patello-femoral knee osteoarthritis
Experiment: Randomized double-blind placebo-controlled clinical study of TPX-100, safety and tolerability
Format: in vivo, human
[1] = intra-articular, four weekly doses, throughout the study period

TDLQERGDNDISPFSGDGQPFKD-NH2 [TPX-100]
Dose-limiting toxicities (Part A, 20, 50, 100 and 200 mg per intra-articular injection, four weekly injections): no dose-limiting toxicities | Severe adverse events related to the drug treatment [1]: no severe adverse events likely or possibly related to the drug treatment | Severity of treatment-related adverse events [1]: mild or moderate, transient | Safety and tolerability of the treatments (intra-articular, four weekly doses, throughout the study period (12 months)): safe and well tolerated
